Assay results as given in US20070156046A1, “Method of enriching hyperpolarized atom nuclei and an apparatus for implementing the method” (priority 2004, published 2007).

Experiments:
[1] = solubility (Ostwald coefficient) of ^129Xe in toluol and ethanol depending on the temperature of the solvent; type: physicochemical; conditions: for increase of the density compared to the gas phase: 180° K; for density of ^129Xe compared with the gas phase: about 240° K
Procedure: Solubility is defined as the density of the hyperpolarized gas in the solvent relative to the density of the hyperpolarized gas in the gas chamber situated above a given temperature and pressure. The solubility is also referred to as the Ostwald coefficient.
An even higher solubility of ^129Xe in the solvent is obtained by cooling to temperatures of 180° K, thereby obtaining a 100-fold increase of the density in both toluol and ethanol compared to the gas phase. Further cooling by just a few degrees Kelvin already results in an increase of the Ostwald coefficient to a value of 200 (FIG. 2).

[2] = ^129Xe densities in the solvent in the two-stage enrichment apparatus; type: physicochemical; conditions: solvent toluol/ethanol
Procedure: A gas mixture 1 with hyperpolarized atomic nuclei flows from a polarizer (not shown) into a first chamber 2 containing a cooled solvent. Chamber 2 has means for cooling the solvent. The solvent containing the gas mixture is thereby cooled to-a temperature T1, of, e.g. 180° K.
The gas components are enriched in chamber 2 according to their solubility in the solvent, and thus separated from one another. The unnecessary components of the mixture are released through valve 3. The solvent enriched with the hyperpolarized atomic nuclei is guided through a connection line out of chamber 2 into a further chamber 5. Chamber 5 comprises means for degassing, such as an apparatus for producing ultrasound and/or heating.
Chamber 5 thus represents a degassing chamber 5 for the hyperpolarized atomic nuclei from the solvent. In chamber 5, a gas pressure of the originally dissolved gas arises due to the degassing of the hyperpolarized atomic nuclei via the solvent. The gas pressure is determined by the partial pressure of the hyperpolarized atomic nuclei (gas component) in solvent chamber 2, and the ratio of the solubilities of this gas component in the solvent at temperatures T1 in chamber 2 and T2 in chamber 5.
Following degassing in chamber 5, the solution and degassing process may be repeated, as represented in FIG. 2 by continuous lines. For this, starting from chamber 5 at the end of the first enrichment stage, the gas with the hyperpolarized atomic nuclei is guided into chamber 6, where it is cooled to the temperature T1. Following enrichment in the solvent, the gas is conducted into chamber 8 with a temperature of T2 for degassing. Chamber 8, again, has a sufficient volume.
The following ^129Xe densities in the solvent (toluol/ethanol) may be set at different temperatures: […]

increase of the density compared to the gas phase ([1]; in ethanol): 100 fold
density of ^129Xe compared with the gas phase ([1]; in ethanol): ten times higher
increase of the density compared to the gas phase ([1]; in toluol): 100 fold
density of ^129Xe compared with the gas phase ([1]; in toluol): ten times higher
Ostwald coefficient ([1]; solvent ethanol, standard conditions (293° K, 1 bar)): about 2.5
Ostwald coefficient ([1]; solvent toluol, standard conditions (293° K, 1 bar)): about 5
solubility or Ostwald coefficient compared to at room temperature ([1]; temperature of 273° K, toluol and ethanol (FIG. 1)): clear increase
Ostwald coefficient ([1]; toluol and ethanol, further cooling by a few degrees Kelvin below 180° K): 200
pXe, Sol, Stage 1 (Chamber 2) ([2]; T = 180°K): pXe, Sol −7.0 bar
pXe, Sol, Stage 2 (Chamber 6) ([2]; T = 180°K): ˜20 bar
pXe, Sol, Stage 1 (Chamber 2) ([2]; T = 200°K): pXe, Sol −2.1 bar
pXe, Sol, Stage 2 (Chamber 6) ([2]; T = 200°K): ˜10 bar
pXe, Sol, Stage 1 (Chamber 2) ([2]; T = 240°K): pXe, Sol −0.7 bar
pXe, Sol, Stage 2 (Chamber 6) ([2]; T = 240°K): ˜3.5 bar
Compound: [Xe] [^129Xe, xenon]
